Measurements taken from the supplement of paper PMC10307832.

Legend:
Assay in all cases: relative viability (nuclei count vs DMSO), 5 days (fraction); higher = more cells survive
Darinaparsin + OSI-027 = compound: C[As](C)SC[C@H](NC(=O)CC[C@H](N)C(=O)O)C(=O)NCC(=O)O [Darinaparsin] + COc1cccc2cc(-c3nc([C@H]4CC[C@H](C(=O)O)CC4)n4ncnc(N)c34)[nH]c12 [OSI-027] (partner 0.5 µM)
Procedure, shortened: (§1)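 Five library-drug doses in √10 steps were combined with a fixed anchor-drug dose, or a single drug was given alone, by pin tool to lung cancer cell lines in 1536-well plates the day after seeding. Nuclei were stained and counted after 5 days. Relative viability is the nuclei count in treated wells over that in vehicle wells, taken as the median of duplicate plates.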

QS11 + Lapatinib = compound: C1CC2=C(C1)C=C(C=C2)OC3=NC(=C4C(=N3)N(C=N4)CC5=CC=C(C=C5)C6=CC=CC=C6)N[C@@H](CC7=CC=CC=C7)CO [QS11] + CS(=O)(=O)CCNCc1ccc(-c2ccc3ncnc(Nc4ccc(OCc5cccc(F)c5)c(Cl)c4)c3c2)o1 [Lapatinib] (partner 2 µM)
Procedure, shortened: as §1

QS11 + Luminespib = compound: C1CC2=C(C1)C=C(C=C2)OC3=NC(=C4C(=N3)N(C=N4)CC5=CC=C(C=C5)C6=CC=CC=C6)N[C@@H](CC7=CC=CC=C7)CO [QS11] + CCNC(=O)c1noc(-c2cc(C(C)C)c(O)cc2O)c1-c1ccc(CN2CCOCC2)cc1 [Luminespib] (partner 0.01 µM)
Procedure, shortened: as §1

AZ628 + Navitoclax = compound: CC1=C(C=C(C=C1)NC(=O)C2=CC(=CC=C2)C(C)(C)C#N)NC3=CC4=C(C=C3)N=CN(C4=O)C [AZ628] + CC1(C)CCC(c2ccc(Cl)cc2)=C(CN2CCN(c3ccc(C(=O)NS(=O)(=O)c4ccc(N[C@H](CCN5CCOCC5)CSc5ccccc5)c(S(=O)(=O)C(F)(F)F)c4)cc3)CC2)C1 [Navitoclax] (partner 0.5 µM)
Procedure, shortened: as §1

Row | Cell Line | relative viability (Darinaparsin + OSI-027; first compound 0.08 µM) | relative viability (Darinaparsin + OSI-027; first compound 0.8 µM) | relative viability (Darinaparsin + OSI-027; first compound 2.53 µM) | relative viability (Darinaparsin + OSI-027; first compound 8 µM) | relative viability (QS11 + Lapatinib; first compound 0.08 µM) | relative viability (QS11 + Lapatinib; first compound 0.253 µM) | relative viability (QS11 + Lapatinib; first compound 0.8 µM) | relative viability (QS11 + Lapatinib; first compound 2.53 µM) | relative viability (QS11 + Lapatinib; first compound 8 µM) | relative viability (QS11 + Luminespib; first compound 0.08 µM) | relative viability (QS11 + Luminespib; first compound 0.253 µM) | relative viability (QS11 + Luminespib; first compound 0.8 µM) | relative viability (QS11 + Luminespib; first compound 2.53 µM) | relative viability (QS11 + Luminespib; first compound 8 µM) | relative viability (AZ628 + Navitoclax; first compound 0.08 µM) | relative viability (AZ628 + Navitoclax; first compound 0.253 µM) | relative viability (AZ628 + Navitoclax; first compound 0.8 µM) | relative viability (AZ628 + Navitoclax; first compound 2.53 µM) | relative viability (AZ628 + Navitoclax; first compound 8 µM)
1 | SK-LU-1 | 0.363 | 0.299 | 0.257 | 0.351 | 0.704 | 0.868 | 0.963 | 0.803 | 0.838 | 0.21 | 0.192 | 0.211 | 0.223 | 0.211 | 0.502 | 0.878 | 1.06 | 0.886 | 0.902
2 | NCI-H1755 | 0.725 | 0.691 | 0.686 | 0.841 | 1.12 | 1.02 | 0.608 | 0.953 | 0.833 | 0.403 | 0.406 | 0.289 | 0.422 | 0.412 | 0.998 | 1 | 1.05 | 1.02 | 0.956
3 | NCI-H650 | 0.584 | 0.531 | 0.533 | 0.604 | 0.83 | 0.907 | 1.13 | 0.801 | 0.667 | 0.758 | 0.806 | 0.802 | 0.654 | 0.868 |  |  |  |  | 
4 | SW 1573 | 0.736 | 0.627 | 0.611 | 0.87 | 1.02 | 1.14 | 1.1 | 1.05 | 1.2 | 0.239 | 0.239 | 0.198 | 0.21 | 0.235 | 0.905 | 0.746 | 0.851 | 0.902 | 0.436
5 | NCI-H322M | 0.611 | 0.531 | 0.545 | 0.573 | 0.573 | 0.642 | 0.559 | 0.576 | 0.628 | 0.823 | 0.863 | 0.911 | 0.99 | 1.24 | 1.34 | 1.14 | 1.19 | 1.24 | 0.914
6 | ABC-1 | 0.489 | 0.424 | 0.453 | 0.444 | 1.18 | 1.44 | 1.16 | 1.16 | 1.47 | 0.656 | 0.861 |  | 0.828 | 0.842 |  |  |  |  | 
7 | NCI-H1993 | 0.542 | 0.527 | 0.493 | 0.551 | 0.823 | 0.962 | 0.601 | 0.751 | 0.882 | 0.831 | 0.74 | 0.739 | 0.77 | 0.68 | 1 | 0.872 | 0.859 | 0.688 | 0.709
8 | NCI-H1355 | 0.432 | 0.352 | 0.34 | 0.372 | 1.08 | 0.792 | 0.688 | 0.997 | 1.07 | 0.743 | 0.696 | 0.602 | 0.727 | 0.703 | 0.99 | 0.808 | 0.931 | 0.903 | 0.746
9 | NCI-H2342 | 0.592 | 0.593 | 0.558 | 0.654 |  |  |  |  |  | 0.787 | 0.754 | 0.721 | 0.697 | 0.746 |  |  |  |  | 
10 | NCI-H1703 |  |  |  |  | 0.986 | 1.41 | 1.04 | 0.974 | 1.1 |  |  |  |  |  | 0.751 | 0.311 | 0.294 | 0.354 | 0.253
11 | NCI-H1563 | 0.752 | 0.735 | 0.71 | 0.708 | 0.988 | 0.892 | 1.12 | 0.972 | 0.891 | 0.59 | 0.541 | 0.513 | 0.532 | 0.452 |  |  |  |  | 
12 | NCI-H1299 |  |  |  |  | 1.02 | 0.933 | 0.807 | 0.917 | 0.712 |  |  |  |  |  | 1.1 | 1.15 | 1.17 | 1.19 | 0.975
13 | HCC-78 | 0.375 | 0.394 | 0.379 | 0.372 | 0.577 | 0.876 | 0.699 | 0.627 | 0.847 |  |  |  |  |  | 0.902 | 0.782 | 0.85 | 0.746 | 0.92
14 | NCI-H522 | 0.617 | 0.644 | 0.623 | 0.712 |  |  |  |  |  | 1.01 | 1.35 | 0.945 | 0.98 | 1.17 |  |  |  |  | 
15 | NCI-H1648 | 0.297 | 0.237 |  | 0.269 |  |  |  |  |  |  |  |  |  |  |  |  |  |  | 
16 | A549 |  |  |  |  | 1.04 | 1.14 | 0.621 | 0.886 | 0.764 |  |  |  |  |  | 1.19 | 1.16 | 1.02 | 1.12 | 0.589
17 | NCI-H358 | 0.988 | 0.76 | 0.846 | 0.793 | 0.41 | 0.436 | 0.482 | 0.703 | 0.785 | 0.435 | 0.457 | 0.479 | 0.414 | 0.444 |  |  |  |  | 
18 | HCC-366 | 1.23 | 1.1 | 0.955 | 1.62 | 0.97 | 0.992 |  | 0.67 | 0.246 |  |  |  |  |  | 1.01 | 1.09 | 0.997 | 0.97 | 0.598
19 | EBC-1 |  |  |  |  | 0.233 | 0.198 | 0.194 | 0.211 | 0.207 |  |  |  |  |  | 0.349 | 0.427 | 0.325 | 0.326 | 0.224
20 | IA-LM |  |  |  |  | 1.13 | 1.02 | 0.513 | 0.589 | 0.596 |  |  |  |  |  | 1.15 | 0.716 | 0.641 | 0.761 | 0.0904
21 | ChaGo-K-1 | 0.612 | 0.518 | 0.516 | 0.715 |  |  |  |  |  | 0.506 | 0.609 | 0.679 | 0.664 | 0.655 | 1.1 |  | 0.751 | 1.1 | 1.14
22 | LCLC-103H | 0.481 | 0.465 | 0.414 | 0.531 |  |  |  |  |  | 0.661 | 1.17 | 0.747 | 0.915 | 1.02 |  |  |  |  | 
23 | NCI-H441 | 0.79 | 0.719 | 0.555 | 0.613 |  |  |  |  |  | 0.376 | 0.286 | 0.329 | 0.315 | 0.328 | 0.565 | 0.508 | 0.765 | 0.902 | 0.633
